For the test, the target named is T1, Dimer of Gag-Pol polyprotein [489-587,Q496K] (Human immunodeficiency virus 1, UniProt P12497, Q496K).
T1 construct: 489-587
In words: Protease Inhibition Assay. Particulars: pH 5.5; 30 °C. The procedure:
Assay of HIV protease inhibition was performed by peptide cleavage using the substrate Val-Ser-Gln-Asn-beta-naphthylalanine*Pro-Ile-Val. Products of the cleavage reaction were quantified by HPLC detection, and data were fit to nonlinear least squares equations for determination of steady-state Michaelis-Menten kinetics.

Structures are written as SMILES.

As a reminder, the IC50 is the point on the concentration scale where inhibition reaches its midpoint. Low readings indicate higher potency, high ones lower potency. Turning to `O=C(N[C@H]1c2ccccc2OC[C@H]1O)[C@H](Cc1cccnc1)C[C@H](O)CN1CCN(Cc2ccc(-c3ccccc3)o2)C[C@H]1C(=O)NCC(F)(F)F` [(2S)-1-[(2S,4R)-2-hydroxy-4-{[(3S,4S)-3-hydroxy-3,4-dihydro-2H-1-benzopyran-4-yl]carbamoyl}-4-(pyridin-3-ylmethyl)butyl]-4-[(5-phenylfuran-2-yl)methyl]-N-(2,2,2-trifluoroethyl)piperazine-2-carboxamide], half-maximal inhibition (IC50) required 0.02 nM.
